Structures can show the parent of a compound that is named as a salt.
Experiments:
[1] = target: T1, Rat FAAH-1 (Rattus norvegicus, UniProt P97612); test: Assay Method 2: rat FAAH-1 assay, 3H-anandamide hydrolysis in homogenate of SK-N-MC cells transfected with rat FAAH
T1 sequence (P97612 1-579): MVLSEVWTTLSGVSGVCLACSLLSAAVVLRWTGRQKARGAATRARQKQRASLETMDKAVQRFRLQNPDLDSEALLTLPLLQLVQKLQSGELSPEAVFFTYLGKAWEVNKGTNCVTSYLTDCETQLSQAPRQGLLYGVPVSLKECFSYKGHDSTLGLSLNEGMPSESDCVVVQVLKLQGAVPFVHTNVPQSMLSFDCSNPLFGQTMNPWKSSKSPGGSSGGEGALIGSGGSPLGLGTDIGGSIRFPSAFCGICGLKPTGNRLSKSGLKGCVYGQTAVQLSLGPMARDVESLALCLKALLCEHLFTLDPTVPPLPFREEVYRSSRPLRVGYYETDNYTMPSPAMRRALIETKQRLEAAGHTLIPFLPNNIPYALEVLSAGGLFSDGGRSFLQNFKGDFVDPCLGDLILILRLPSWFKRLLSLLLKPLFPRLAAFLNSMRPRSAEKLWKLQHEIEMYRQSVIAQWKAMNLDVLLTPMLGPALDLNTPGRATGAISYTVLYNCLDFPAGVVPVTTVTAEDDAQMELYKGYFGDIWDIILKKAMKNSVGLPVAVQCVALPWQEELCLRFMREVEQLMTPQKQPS

[2] = target: T2, FAAH (Homo sapiens, UniProt O00519); test: Assay Method 1: FAAH assay, 3H-anandamide hydrolysis in homogenate of T84 cells or SK-N-MC cells transfected with human FAAH
T2 sequence (O00519 1-579): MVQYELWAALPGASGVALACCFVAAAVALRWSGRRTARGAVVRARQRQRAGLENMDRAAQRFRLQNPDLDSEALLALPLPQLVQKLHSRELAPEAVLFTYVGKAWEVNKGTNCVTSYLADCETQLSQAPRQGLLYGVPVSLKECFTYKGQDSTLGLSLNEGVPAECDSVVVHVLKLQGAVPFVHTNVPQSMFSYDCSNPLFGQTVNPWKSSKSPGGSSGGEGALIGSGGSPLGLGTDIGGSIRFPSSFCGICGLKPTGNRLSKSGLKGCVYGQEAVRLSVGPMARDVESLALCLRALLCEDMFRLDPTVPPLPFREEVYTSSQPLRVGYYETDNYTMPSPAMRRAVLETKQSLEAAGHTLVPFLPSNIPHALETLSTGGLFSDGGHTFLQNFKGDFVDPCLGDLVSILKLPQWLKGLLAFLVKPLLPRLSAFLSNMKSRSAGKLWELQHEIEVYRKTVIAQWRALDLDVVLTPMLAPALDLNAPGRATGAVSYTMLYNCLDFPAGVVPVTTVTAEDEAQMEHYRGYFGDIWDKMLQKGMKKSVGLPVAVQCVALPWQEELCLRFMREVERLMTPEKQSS

| IC50 [1] [nM] | IC50 [2] [nM] | Structure (SMILES) |
| --- | --- | --- |
| 14 | 15 | COc1nc(NC[C@H](O)c2ccccc2)cc(-c2ccc(C(F)(F)F)c(Cl)c2)n1 [Example 164, (1R)-2-({6-[3-Chloro-4-(trifluoromethyl)phenyl]-2-methoxypyrimidin-4-yl}amino)-1-phenylethanol trifluoroacetic acid salt] |
| 19 | 4 | Cc1noc2cc(-c3cc(NC[C@H](O)c4ccccc4)ncn3)ccc12 [Example 165, (1R)-2-{[6-(3-Methyl-1,2-benzisoxazol-6-yl)pyrimidin-4-yl]amino}-1-phenylethanol] |
| 20 | 60 | CSc1ccc(C(O)CNc2cc(-c3ccc(C(F)(F)F)c(Cl)c3)ncn2)cc1 (centres unmarked) [Example 167, 2-({6-[3-Chloro-4-(trifluoromethyl)phenyl]pyrimidin-4-yl}amino)-1-[4-(methylsulfanyl)phenyl]ethanol] |
| 42 | 66 | OC(CNc1cc(-c2ccc(C(F)(F)F)c(Cl)c2)ncn1)c1ccsc1 (centres unmarked) [Example 168, 2-({6-[3-Chloro-4-(trifluoromethyl)phenyl]pyrimidin-4-yl}amino)-1-thiophen-3-ylethanol] |
| 8000 | 6000 | OC(CNc1cc(-c2ccc(C(F)(F)F)c(Cl)c2)ncn1)c1nccs1 (centres unmarked) [Example 169, 2-({6-[3-Chloro-4-(trifluoromethyl)phenyl]pyrimidin-4-yl}amino)-1-(1,3-thiazol-2-yl)ethanol] |
| 4000 | 81 | O[C@@H](CNc1cc(-c2ccc3ncccc3c2)ncn1)c1ccccc1 [Example 170, (1R)-1-Phenyl-2-[(6-quinolin-6-ylpyrimidin-4-yl)amino]ethanol] |
| > 10000 | 1600 | CC(C)(C)NS(=O)(=O)c1ccc(-c2cc(NC[C@H](O)c3ccccc3)ncn2)cc1 [Example 171, N-tert-Butyl-4-(6-{[(2R)-2-hydroxy-2-phenylethyl]amino}pyrimidin-4-yl)benzenesulfonamide] |
| 1500 | 8000 | O=S(=O)(c1ccc(-c2cc(NC[C@H](O)c3ccccc3)ncn2)cc1)N1CCSCC1 [Example 172, (1R)-1-Phenyl-2-({6-[4-(thiomorpholin-4-ylsulfonyl)phenyl]pyrimidin-4-yl}amino)ethanol] |
| 11 | 2 | O[C@@H](CNc1cc(-c2ccc(C(F)(F)F)c(F)c2)ncn1)c1ccc(F)cc1 [Example 173, (1R)-1-(4-Fluorophenyl)-2-({6-[3-fluoro-4-(trifluoromethyl)phenyl]pyrimidin-4-yl}amino)ethanol] |
| 5 | 2 | O[C@@H](CNc1cc(-c2ccc(OC(F)(F)F)c(F)c2)ncn1)c1ccc(F)cc1 [Example 174, (1R)-1-(4-Fluorophenyl)-2-({6-[3-fluoro-4-(trifluoromethoxy)phenyl]pyrimidin-4-yl}amino)ethanol trifluoroacetic acid salt] |
| 3 | 2 | O[C@@H](CNc1cc(-c2ccc(OC(F)(F)F)c(Cl)c2)ncn1)c1ccc(F)cc1 [Example 175, (1R)-2-({6-[3-Chloro-4-(trifluoromethoxy)phenyl]pyrimidin-4-yl}amino)-1-(4-fluorophenyl)ethanol trifluoroacetic acid salt] |
| 10 | 9 | O[C@@H](CNc1cc(-c2ccc3c(C(F)(F)C(F)(F)F)noc3c2)ncn1)c1ccc(F)cc1 [Example 176, (1R)-1-(4-fluorophenyl)-2-({6-[3-(pentafluoroethyl)-1,2-benzisoxazol-6-yl]pyrimidin-4-yl}amino)ethanol trifluoroacetic acid salt] |
| 3 | 3 | O[C@@H](CNc1cc(-c2ccc3c(C(F)(F)F)noc3c2)ncn1)c1ccc(F)cc1 [Example 177, (1R)-1-(4-Fluorophenyl)-2-({6-[3-(trifluoromethyl)-1,2-benzisoxazol-6-yl]pyrimidin-4-yl}amino)ethanol trifluoroacetic acid salt] |
| 40 | 9 | C[C@H](Nc1cc(-c2ccc(C(F)(F)F)c(Cl)c2)ncn1)[C@H](O)c1ccccc1 [Example 179] |
| 20 | 7 | O[C@@H](CNc1cc(-c2ccc(OC(F)(F)F)c(Cl)c2)ncn1)c1ccccc1 [Example 181, (1R)-2-({6-[3-Chloro-4-(trifluoromethoxy)phenyl]pyrimidin-4-yl}amino)-1-phenylethanol] |
| 4 | 10 | O[C@@H](CNc1cc(-c2ccc3c(C(F)(F)F)noc3c2)ncn1)c1ccccc1 [Example 182, (1R)-1-Phenyl-2-({6-[3-(trifluoromethyl)-1,2-benzisoxazol-6-yl]pyrimidin-4-yl}amino)ethanol] |
| 89 | 36 | O[C@@H](CNc1cc(-c2ccc3c(c2)OC(F)(F)O3)ncn1)c1ccccc1 [Example 183, (1R)-2-{[6-(2,2-Difluoro-1,3-benzodioxol-5-yl)pyrimidin-4-yl]amino}-1-phenylethanol] |
| 160 | 31 | O[C@@H](CNc1cc(-c2cc3cc(C(F)(F)F)ccc3s2)ncn1)c1ccccc1 [Example 184, (1R)-1-Phenyl-2-({6-[5-(trifluoromethyl)-1-benzothiophen-2-yl]pyrimidin-4-yl}amino)ethanol trifluoroacetic acid salt] |
| 90 | 20 | O[C@@H](CNc1cc(-c2cc3cc(OC(F)(F)F)ccc3s2)ncn1)c1ccccc1 [Example 185, (1R)-1-Phenyl-2-({6-[5-(trifluoromethoxy)-1-benzothiophen-2-yl]pyrimidin-4-yl}amino)ethanol trifluoroacetic acid salt] |
| > 10000 | 7070 | O[C@@H](CNc1cc(-c2cc3ccc(C(F)(F)F)cc3s2)ncn1)c1ccccc1 [Example 186, (1R)-1-Phenyl-2-({6-[6-(trifluoromethyl)-1-benzothiophen-2-yl]pyrimidin-4-yl}amino)ethanol trifluoroacetic acid salt] |
| 400 | 20 | O[C@@H](CNc1cc(-c2cc3cc(F)ccc3s2)ncn1)c1ccccc1 [Example 187, (1R)-2-{[6-(5-Fluoro-1-benzothiophen-2-yl)pyrimidin-4-yl}amino]-1-Phenylethanol] |
| 35 | 24 | O[C@@H](CNc1cc(-c2ccc3c(C(F)(F)C(F)(F)F)noc3c2)ncn1)c1ccccc1 [Example 188, (1R)-2-({6-[3-(pentafluoroethyl)-1,2-benzisoxazol-6-yl]pyrimidin-4-yl}amino)-1-phenylethanol trifluoroacetic acid salt] |
| 150 | 170 | OC(CNc1cc(-c2ccc(C(F)(F)F)c(Cl)c2)ncn1)c1ccccc1OC(F)F (centres unmarked) [Example 189, 2-({6-[3-Chloro-4-(trifluoromethyl)phenyl]pyrimidin-4-yl}amino)-1-[2-(difluoromethoxy)phenyl]ethanol] |
| 12 | 7 | OC(CNc1cc(-c2ccc(C(F)(F)F)c(Cl)c2)ncn1)c1ccc(F)cc1 (centres unmarked) [Example 190, 2-({6-[3-Chloro-4-(trifluoromethyl)phenyl]pyrimidin-4-yl}amino)-1-(4-fluorophenyl)ethanol] |
| 7 | 19 | N#Cc1ccc(C(O)CNc2cc(-c3ccc(C(F)(F)F)c(Cl)c3)ncn2)cc1 (centres unmarked) [Example 191, 4-[2-({6-[3-Chloro-4-(trifluoromethyl)phenyl]pyrimidin-4-yl}amino)-1-hydroxyethyl]benzonitrile] |
| 6 | 47 | OC(CNc1cc(-c2ccc(C(F)(F)F)c(Cl)c2)ncn1)c1ccc2ccccc2c1 (centres unmarked) [Example 192, 2-({6-[3-Chloro-4-(trifluoromethyl)phenyl]pyrimidin-4-yl}amino)-1-naphthalen-2-ylethanol] |
| 850 | 40 | OC(CNc1cc(-c2ccc(C(F)(F)F)c(Cl)c2)ncn1)c1ccc(-c2ccccn2)cc1 (centres unmarked) [Example 193, 2-({6-[3-Chloro-4-(trifluoromethyl)phenyl]pyrimidin-4-yl}amino)-1-(4-Pyridin-2-ylphenyl)ethanol] |
| 210 | 11 | OC(CNc1cc(-c2ccc(C(F)(F)F)c(Cl)c2)ncn1)c1ccc(-c2cccs2)cc1 (centres unmarked) [Example 194, 2-({6-[3-Chloro-4-(trifluoromethyl)phenyl]pyrimidin-4-yl}amino)-1-(4-thiophen-2-ylphenyl)ethanol] |
